{"source": "patent US7947668B2", "about": "“Aminoalkyl sterol compounds having an anti-tumoral and neuroprotective activity” (Institut National de la Sante et de la Recherche Medicale, priority 2002, dated 2011)", "key": {"[1]": {"tested_on": "U937 cells expressing RCPG-HA", "experiment": "Overexpression of a membrane receptor in the U937 tumoral cell line", "type": "cell-based, human", "conditions": "10 nM, 12 hours, 48 hours after transfection", "description": "U937 cells were cultured in an “RPMI 1640” medium sold by the company “Gibco BRL”. A plasmid coding for an […] membrane receptor belonging to the superfamily of protein G-coupled receptors and containing an HA label is generated.\nThe U937 cells expressing the receptors are generated by transfection using the “lipofectamine” reagent according to the manufacturer's instructions.\n48 hours after transfection, the transfected cells were treated with 10 nM of compound according to example 9 for 12 hours.\nThese cells were fixed in order to be examined by fluorescence microscopy."}, "[2]": {"tested_on": "T lymphocytes originating from BALB/c mouse spleens", "experiment": "Proliferation of T lymphocytes (tritiated thymidine incorporation)", "type": "cell-based", "conditions": "C57BL/6 dendritic cells in contact with BALB/c T lymphocytes", "description": "C57BL/6 mouse monocytes were collected as indicated in example 48.1. The dendritic cells were obtained as indicated in example 9. After transformation into CDs with the test compound, the cells are treated with an antimitotic agent (mitomycin C at 0.0006 mg/ml) and incubated for 30 minutes at 37° C., in order to block DNA synthesis in the CDs. After this treatment, the cells are washed twice with RPMI 1640 medium supplemented with 10% fetal calf serum.\nBALB/c mouse spleens were also collected and treated as described for the preparation of the C57BL/6 mouse monocytes. The nonadherent cells, which contain the T lymphocytes, are recovered and added to the C57BL/6 mouse dendritic cells. On the fourth day of contact of the cells, tritiated thymidine is added. After incubation for 18 hours, the cells are lyzed with absolute alcohol. The precipitate is suspended in water and then filtered through a cellulose filter. The incorporation of thymidine is measured by scintillation counting (Packard Instrument, Meriden Conn., USA).\nThe adherent monocytes originating from mouse spleens obtained according to example 14.1 were treated with the abovementioned compound at variable doses. […] The lymphocyte proliferation is measured by measuring the incorporation of tritiated thymidine into the DNA."}}, "data": [{"smiles": "CC(C)CCC[C@@H](C)[C@H]1CC[C@H]2[C@@H]3C[C@@H](NCCc4c[nH]cn4)[C@@]4(O)C[C@@H](O)CC[C@]4(C)[C@H]3CC[C@]12C", "note": "[Example 9, cholestane-3β,5α-diol-6β-N-[2-ethylamino(1H-imidazol-4-yl)]]", "values": [{"measurement": "expression of RCPG-HA membrane receptor (immunofluorescence)", "setting": "[1]", "value": "expression of a membrane receptor of RCPG type"}, {"measurement": "stimulation of the T lymphocyte proliferation (factor)", "setting": "[2]", "value": 5}]}]}
